Where no end group is shown, it is not given here.

Experimental findings from publication PMC6568410, “A scorpion venom peptide derivative BmKn‒22 with potent antibiofilm activity against Pseudomonas aeruginosa” (PLoS ONE, 2019) are described below.

The subject of series [1] is P. aeruginosa PAO1 biofilm formation. As to the kind of experiment: Biofilm formation assay, crystal violet staining. In kind it is cell-based, Pseudomonas aeruginosa. Conditions: for reduction of P. aeruginosa biofilms: 24 h, compared with untreated control, result in words. How it is done:
The effect of BmKn‒2 peptide and derivatives on biofilm formation of P. aeruginosa PAO1 was determined according to the method published previously with some modifications. Briefly, 100 μL of the test peptides was plated into the wells of flat-bottomed 96-well microtiter plates (Nunc™, Roskilde, Denmark) at the final concentrations of 200 ‒ 800 μM. Aliquots of the P. aeruginosa PAO1 suspension were then inoculated to the wells of 96-well microtiter plates to obtain a final concentration of 10^6 CFU/mL. Culture without the test peptides was used as the untreated control. After incubation at 37 ^OC for 24 h without agitation, planktonic cells were removed and the plates were gently rinsed twice with phosphate buffered saline (PBS) pH 7.4. Biofilms were then stained with 0.1% crystal violet solution (Merck, Darmstadt, Germany) for 10 minutes at room temperature. Excess stains were rinsed off with PBS pH 7.4 and the plates were left dry at 37 ^OC for 2 h. Subsequently, biofilm biomass was solubilized with 30% acetic acid and the optical density (OD) measured at 550 nm using a microplate reader (BioTek Synergy HT).

The test system of a further series is sheep red blood cells. Description: Hemolytic assay. In kind it is cell-based. The settings on record: 800 µM, 37 °C, 1 h. The protocol:
Hemolytic activity of the test peptides was assayed according to a protocol described previously. Suspension of 2% sheep red blood cells (100 μL) prepared in PBS pH 7.4 was incubated with 100 μL of the test peptides (800 μM, final concentration). After incubation at 37 ^OC for 1 h, the suspension was centrifuged at 1,000 g for 5 min followed by transferring 100 μL of the supernatant to 96 well-microtiter plate (Nunc). Released hemoglobin was then determined by measuring an absorbance at 405 nm using a microplate reader (BioTek Synergy HT). Positive and negative controls in this assay were 1% Triton X-100 and PBS pH 7.4, respectively. Hemolysis (%) was calculated using an equation: (OD405 nm peptide ‒ OD405 nm PBS pH 7.4)/(OD405 nm 1% Triton X-100 ‒ OD405 nm PBS pH 7.4) × 100.

For the next series, the system named is P. aeruginosa PAO1. As to the kind of experiment: Growth assay, standard plate counts. In kind it is cell-based, Pseudomonas aeruginosa. Conditions: 800 µM, 24 h; for effect on bacterial counts (growth): compared with untreated control, result in words. The protocol:
The effects of BmKn‒2 peptide and its derivatives on growth of P. aeruginosa PAO1 were carried out as described previously with some modifications. Bacterial suspension (10^6 CFU/mL) and the test peptides (800 μM, final concentration) were incubated at 37 ^OC at 150 rpm. Bacterial culture without the test peptides was used as the untreated control. After 24 h, bacterial concentration was evaluated. Cultures from each treatment were taken and 10-fold serial dilution was performed; 100 μL of each dilution was then spread on LB agar plates. Following incubation at 37°C for 24 h, the colonies were counted and expressed as log10 CFU/mL.

Series [2] deals with L929 mouse fibroblast cells. As to the kind of experiment: Cytotoxicity, MTT assay. The settings on record: 800 µM, 24 h; for effect on viability of L929 cells: compared with untreated control, result in words; for Cell viability (%): L929 cells. Type of series: cell-based. The protocol:
The toxicity of the test peptides against L929 mouse fibroblast cells was assessed by 3-(4,5-dimethylthiazol-2-yl)-2,5-diphenyltetrazolium bromide (MTT) assay. L929 mouse fibroblast cells from American Type Culture Collection (ATCC, Manassas, VA, USA) were cultured in Dulbecco's Modified Eagle Medium (DMEM; HyClone, Utah, USA) supplemented with 10% fetal bovine serum (Gibco, South America), 10 mM 4-(2-hydroxyethyl)-1 piperazineethanesulfonic acid (HEPES; HyClone, Utah, USA), 2 mM L-glutamine (Gibco, Brazil) and 100 U/mL penicillin and 100 μg/ml streptomycin (Gibco, USA) in a 5% CO2 atmosphere at 37°C. L929 cells (2×10^4 cells/well) were seeded in 96-well plates (Nunc) and incubated overnight. The culture medium was discarded and replaced by 100 μL of fresh DMEM containing the test compounds (final concentration 800 μM). Cells without the test compounds served as untreated control. After 24 h incubation, 20 μL of MTT solution (5 mg/mL; Sigma, St. Louis, MO, USA) was added and incubated for 3 h. The culture supernatant was removed and 100 μL dimethyl sulfoxide was added to each well to dissolve the formazan crystals. The absorbance was measured at 540 nm on a microplate reader (BioTek Synergy HT). Percentage of cell viability was calculated according to the equation: (OD of treated cells/ OD of untreated cells) × 100.

The subject of series [3] is P. aeruginosa PAO1 established biofilms. As to the kind of experiment: Established (24 h-preformed) biofilm assay, crystal violet staining. Type of series: cell-based, Pseudomonas aeruginosa. The protocol: Antibiofilm activity of the test peptides was also examined against established biofilms as follows. Aliquots of the P. aeruginosa PAO1 suspension adjusted to a final concentration of 10^6 CFU/mL were seeded into the wells of flat-bottomed 96-well microtiter plates (Nunc). Biofilms were established at 37°C for 24 h. After incubation, nonadherent planktonic cells were removed by gently washing the wells with sterile PBS pH 7.4. Preformed biofilms were then treated with the test peptides at concentrations of 200 ‒ 800 μM and incubated at 37°C for 24 h. Culture without the test peptides served as the untreated control. After the incubation, the test peptides were aspirated gently and the plates were rinsed twice with PBS pH 7.4. Biofilm biomass was subsequently quantified by 0.1% crystal violet staining as previously described.

The mark [4] stands for this setting: 37 °C, 150 rpm, plate counts, untreated control 9.183, mean of 3 independent experiments.
Where [5] appears, read: Exp. 1 (untreated control 9.082).
Where [6] appears, read: Exp. 2 (untreated control 9.198).
Setting [7] is: Exp. 3 (untreated control 9.268).

As for FIGAIARLL [BmKn-24], in series [1] (800 µM), the “reduction of P. aeruginosa biofilms” value is given as “less biofilm reduction activities”. For the same substance, the “lysis of red blood cells” value in the series on sheep red blood cells is “less or no hemolysis”. The “Bacterial growth, Log10 CFU/mL” value with P. aeruginosa PAO1 (setting [4]) worked out at 9.313 Log10 CFU/mL; in the series with P. aeruginosa PAO1 (setting [5]) it was 9.304 Log10 CFU/mL; in the series on P. aeruginosa PAO1 (setting [6]), 9.273 Log10 CFU/mL; with P. aeruginosa PAO1 (setting [7]), 9.364 Log10 CFU/mL. Besides, the “effect on bacterial counts (growth)” value in the series with P. aeruginosa PAO1 is listed as “no significant (P > 0.05) differences in bacterial counts”. The “effect on viability of L929 cells” value in series [2] is listed as “low effects on cell viability”. Also, the “Cell viability (%)” value in series [2] (Exp. 1) came out at 84.274%; in series [2] (Exp. 2) it was 81.538%; in series [2] (Exp. 3) it was 83.751%.

For the substance “FIGAIARLLSKIF [BmKn-2, reference compound]”, the “reduction of P. aeruginosa biofilms” value in series [1] (800 µM) is listed as “marked reduction”. For the same substance, the “Bacterial growth, Log10 CFU/mL” value came out at 6.872 Log10 CFU/mL in the series on P. aeruginosa PAO1 (setting [4]), 6.755 Log10 CFU/mL in the series with P. aeruginosa PAO1 (setting [5]), 6.448 Log10 CFU/mL in the series on P. aeruginosa PAO1 (setting [6]) and 7.411 Log10 CFU/mL with P. aeruginosa PAO1 (setting [7]). Besides, in the series on P. aeruginosa PAO1, the “effect on bacterial counts (growth)” value is given as “reduction in bacterial counts”. In series [2], the “effect on viability of L929 cells” value is “significant decrease (P < 0.001) in viability”. Also, the “Cell viability (%)” value was found to be 2.236% in series [2] (Exp. 1), 2.027% in series [2] (Exp. 2) and 1.988% in series [2] (Exp. 3).

Regarding FIGAIARL [BmKn-25], the “reduction of P. aeruginosa biofilms” value in series [1] (800 µM) was “less biofilm reduction activities”. Besides, in the series on sheep red blood cells, the “lysis of red blood cells” value is on record as “less or no hemolysis”. The “Bacterial growth, Log10 CFU/mL” value in the series with P. aeruginosa PAO1 (setting [4]) came out at 9.293 Log10 CFU/mL; in the series with P. aeruginosa PAO1 (setting [5]) it was 9.255 Log10 CFU/mL; in the series on P. aeruginosa PAO1 (setting [6]), 9.288 Log10 CFU/mL; with P. aeruginosa PAO1 (setting [7]), 9.335 Log10 CFU/mL. The “effect on bacterial counts (growth)” value in the series on P. aeruginosa PAO1 is listed as “no significant (P > 0.05) differences in bacterial counts”. Further, in series [2], the “effect on viability of L929 cells” value was “low effects on cell viability”. In addition, the “Cell viability (%)” value was found to be 82.909% in series [2] (Exp. 1), 93.165% in series [2] (Exp. 2) and 83.012% in series [2] (Exp. 3).

As for FIGAIARLLS [BmKn-23], the “Biofilm inhibition (%), biofilm formation” value worked out at 28.654% in series [1] (200 µM, Exp. 1); 28.944% in series [1] (200 µM, Exp. 2); 40.209% in series [1] (200 µM, Exp. 3); 34.053% in series [1] (400 µM, Exp. 1); 36.612% in series [1] (400 µM, Exp. 2); 46.402% in series [1] (400 µM, Exp. 3). Also, the “Biofilm inhibition (%), biofilm formation” value in series [1] (800 µM, Exp. 1) is 44.669%; in series [1] (800 µM, Exp. 2) it was 49.083%; in series [1] (800 µM, Exp. 3), 70.992%. Further, the “reduction of P. aeruginosa biofilms” value in series [1] (800 µM) is on record as “marked reduction”. In addition, the “Biofilm inhibition (%), preformed biofilm” value is reported as 0.000% in series [3] (200 µM, Exp. 1); 3.802% in series [3] (200 µM, Exp. 2); 6.512% in series [3] (200 µM, Exp. 3); 12.191% in series [3] (400 µM, Exp. 1); 4.570% in series [3] (400 µM, Exp. 2); 0.000% in series [3] (400 µM, Exp. 3). Also, the “Biofilm inhibition (%), preformed biofilm” value in series [3] (800 µM, Exp. 1) is 3.155%; in series [3] (800 µM, Exp. 2) it was 0.000%; in series [3] (800 µM, Exp. 3), 8.639%. Further, the “% inhibition of 24 h-preformed P. aeruginosa biofilms” value in series [3] (range over 200 - 800 µM, 24 h treatment) is given as “No eradication activity”. Besides, in the series with sheep red blood cells, the “lysis of red blood cells” value is “less or no hemolysis”. In addition, the “Bacterial growth, Log10 CFU/mL” value is listed as 9.429 Log10 CFU/mL with P. aeruginosa PAO1 (setting [4]), 9.488 Log10 CFU/mL with P. aeruginosa PAO1 (setting [5]), 9.359 Log10 CFU/mL in the series with P. aeruginosa PAO1 (setting [6]) and 9.440 Log10 CFU/mL in the series on P. aeruginosa PAO1 (setting [7]). Also, the “effect on bacterial counts (growth)” value with P. aeruginosa PAO1 is on record as “no significant (P > 0.05) differences in bacterial counts”. The “effect on viability of L929 cells” value in series [2] is reported as “low effects on cell viability”. For the same substance, the “Cell viability (%)” value in series [2] (Exp. 1) is recorded as 80.383%; in series [2] (Exp. 2), 84.400%; in series [2] (Exp. 3), 88.135%.

As to FIGAIAR [BmKn-26], the “reduction of P. aeruginosa biofilms” value in series [1] (800 µM) is on record as “less biofilm reduction activities”. Further, the “lysis of red blood cells” value in the series with sheep red blood cells is on record as “less or no hemolysis”. Further, the “Bacterial growth, Log10 CFU/mL” value in the series on P. aeruginosa PAO1 (setting [4]) is recorded as 9.247 Log10 CFU/mL; in the series on P. aeruginosa PAO1 (setting [5]) it was 9.213 Log10 CFU/mL; in the series on P. aeruginosa PAO1 (setting [6]) it was 9.213 Log10 CFU/mL; in the series on P. aeruginosa PAO1 (setting [7]) it was 9.314 Log10 CFU/mL. The “effect on bacterial counts (growth)” value with P. aeruginosa PAO1 is “no significant (P > 0.05) differences in bacterial counts”. Further, in series [2], the “effect on viability of L929 cells” value is reported as “low effects on cell viability”. The “Cell viability (%)” value was found to be 85.233% in series [2] (Exp. 1), 87.113% in series [2] (Exp. 2) and 79.724% in series [2] (Exp. 3).

Take FIGAIARLLSKI [BmKn-21]: the “reduction of P. aeruginosa biofilms” value in series [1] (800 µM) was “marked reduction”. Besides, the “Bacterial growth, Log10 CFU/mL” value with P. aeruginosa PAO1 (setting [4]) is 6.183 Log10 CFU/mL; in the series with P. aeruginosa PAO1 (setting [5]), 6.000 Log10 CFU/mL; in the series on P. aeruginosa PAO1 (setting [6]) it was 6.314 Log10 CFU/mL; in the series with P. aeruginosa PAO1 (setting [7]) it was 6.236 Log10 CFU/mL. Also, the “effect on bacterial counts (growth)” value with P. aeruginosa PAO1 is listed as “reduction in bacterial counts”. Besides, the “effect on viability of L929 cells” value in series [2] was “significant decrease (P < 0.001) in viability”. Moreover, the “Cell viability (%)” value in series [2] (Exp. 1) was found to be 1.974%; in series [2] (Exp. 2), 1.699%; in series [2] (Exp. 3) it was 1.835%.
